This note sets out measurements from PubChem BioAssay (NCI).

Where “and” joins values, the source holds several entries; their conditions need not be identical. Identical values can stand only once.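 Cells were grown in 96-well plates and exposed to each compound for 48 hours at five concentrations; endpoints were interpolated linearly between bracketing concentrations, or set to the highest concentration if not reached. GI50 is the concentration that inhibits growth by half. At the TGI there is no net growth.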

Holding throughout (assay): growth of human tumour cells (NCI), 48 h
In experiment [1] the test system is MDA-MB-231 breast.
Experiment [2] deals with MCF7 breast.
Experiment [3] relates to EKVX NSCLC.
Experiment [4] concerns M14 melanoma.
Experiment [5] relates to SF-295 CNS.
Experiment [6] concerns SW-620 colon.
Experiment [7] concerns HL-60(TB) leukemia.
The subject of experiment [8] is HOP-92 NSCLC.
Experiment [9] has as its system NCI-H23 lung.
The test system of experiment [10] is SK-MEL-28 melanoma.

As for `CCN1C(=O)NC(=O)C(C)(N2C(=O)c3c(F)c(F)c(F)c(F)c3C2=O)C1=O` (stereo not given), the GI50 in experiment [1] is 2.66 µM; in experiment [2], 2.77 µM; in experiment [3] it was 5.76 µM; in experiment [4], 3.16 µM; in experiment [5] it was 9.67 µM; in [6], 1.82 µM. Also, the GI50 in [7] is 1.61 µM; in [8], 1.86 µM; in [9] it was 3.92 µM; in experiment [10], 2.25 µM. Further, the TGI worked out at 9.13 µM in [1]; 13.5 µM in experiment [2]; 18 µM in [3]; 10.7 µM in [4]; 23.9 µM in experiment [5]; 3.85 µM in [6]. In addition, the TGI in experiment [7] was 3.49 µM; in [8], 4.12 µM; in [9], 17.7 µM; in [10], 5.82 µM.

As to `O=C(CN1CCN(c2ccc(Cl)cc2)CC1)N1CCN(c2nnc(-c3ccc(Cl)cc3)c(-c3ccc(Cl)cc3)n2)CC1`, the GI50 in experiment [1] was 50.8 µM; in [2], 8.9 µM; in experiment [3] it was 21.5 µM; in experiment [4] it was 28.2 µM; in experiment [5], 20.9 µM; in experiment [6], above 100 µM. In addition, the GI50 in experiment [7] is above 100 µM; in experiment [8] it was 22.4 µM; in [9] it was 48 µM; in [10], above 100 µM. Besides, the TGI in [1], in experiment [2], in experiment [3], in [4], in [5] and in experiment [6] was above 100 µM throughout. Moreover, the TGI in experiment [7] is above 100 µM; in experiment [8] it was 60.4 µM; in experiment [9], above 100 µM; in experiment [10], above 100 µM.

For the compound `O=C([O][Hg][CH2]C1COC([CH2][Hg][O]C(=O)c2ccccc2)CO1)c1ccccc1` (stereo not given), the GI50 in experiment [1] was 19.3 µM and 4.48 µM; in experiment [2], 3.69 µM and 1.16 µM; in experiment [3], 20.7 µM and 19.5 µM; in experiment [4], 8.68 µM and 2.52 µM; in experiment [5], 19.2 µM and 17.8 µM; in experiment [6], 1.64 µM. Also, the GI50 in experiment [7] was 1.68 µM and 1.82 µM; in [8], 1.87 µM and 1.94 µM; in [9], 9.82 µM; in [10] it was 15.9 µM and 1.75 µM. For the same compound, the TGI in experiment [1] was 41.9 µM and 16.4 µM; in [2] it was 19.8 µM and 2.87 µM; in experiment [3], 35.8 µM and 34.9 µM; in experiment [4], 19.8 µM and 4.89 µM; in experiment [5], 41.7 µM and 31.6 µM; in experiment [6], 3.04 µM. Moreover, the TGI is 4.54 µM and 21.6 µM in [7]; 4.16 µM and 3.37 µM in experiment [8]; 23.3 µM in experiment [9]; 29.5 µM and 3.19 µM in experiment [10].

As for `CC/C=C\C/C=C\C[C@H](O)C/C=C1/C(=O)C=C[C@@H]1C/C=C\CCCC(=O)O`, the GI50 was 7.94 µM in experiment [1]; 2.96 µM in experiment [2]; 14.5 µM in experiment [3]; 2.82 µM in [4]; 7.86 µM in experiment [5]; 4.46 µM in experiment [6]. The GI50 in experiment [7] is 2.93 µM; in experiment [8], 7.26 µM; in experiment [9], 4.09 µM; in experiment [10] it was 3.83 µM. Besides, the TGI is 44.4 µM in [1]; 18.5 µM in [2]; 30.5 µM in experiment [3]; 12 µM in [4]; 22.4 µM in [5]; 70.6 µM in experiment [6]. In addition, the TGI in experiment [7] was 10.1 µM; in [8], 20.4 µM; in experiment [9], 17.1 µM; in [10], 13.3 µM.

Consider `COC1CCC(O)C(/C=C/[N+](=O)[O-])C1` (stereo not given), for which the TGI in [1] is 18.1 µM; in [2], 12.9 µM; in [3], 15.1 µM; in [4], 10.7 µM; in [5] it was 23.9 µM; in experiment [6], above 100 µM. For the same compound, the TGI in experiment [7] turned out to be 5.29 µM; in experiment [8] it was 26.6 µM; in [9] it was 16.6 µM; in [10], 54.9 µM.
